We go through 21 compounds from US20250059159A1, “PLPRO INHIBITORS” (SHANGHAI SYNERGY PHARMACEUTICAL SCIENCES CO., LTD., priority 2021, published 2025).

The assay addresses SARS-CoV-2 PLpro (Severe acute respiratory syndrome coronavirus 2 (2019-nCoV) (SARS-CoV-2), UniProt P0DTD1). Nature of the assay: PLpro enzymatic inhibition assay (IC50 value determination). It is filed as biochemical. The note with it: 60 min preincubation for covalent inhibitors, 10 min for non-covalent, read-out: Inhibition of SARS-CoV-2 PLpro IC50 range.

For the compound `C#CCNC(=O)CNC(=O)CN(C1CCN(C(C)c2ccccc2Cl)CC1)S(C)(=O)=O` (stereo not drawn) [Compound 101, 2-(N-(1-(1-(2-chlorophenyl)ethyl)piperidin-4-yl)methylsulfonamido)-N-(2-oxo-2-(prop-2-yn-1-ylamino)ethyl)acetamide], the concentration for half-maximal inhibition (IC50) (as a rule, the concentration at which inhibition is half-maximal) was less than 100 nM. `C#CCNC(=O)CNC(=O)CN(C1CCN(C(CF)c2cccc3ccccc23)CC1)S(C)(=O)=O` (stereo not drawn) [Compound 144, 2-(N-(1-(2-fluoro-1-(naphthalen-1-yl)ethyl)piperidin-4-yl)methylsulfonamido)-N-(2-oxo-2-(prop-2-yn-1-ylamino)ethyl)acetamide]: the half-inhibitory concentration (IC50) was in the range of 1000 to 10000 nM.

As for `COC(=O)/C=C/CNC(=O)c1nnc(CNC(=O)CN(C2CCN(C(C)c3cccc4ccccc34)CC2)S(C)(=O)=O)o1` (stereo not drawn) [Compound 136, methyl (E)-4-(5-((2-(N-(1-(1-(naphthalen-1-yl)ethyl)piperidin-4-yl)methylsulfonamido)acetamido)methyl)-1,3,4-oxadiazole-2-carboxamido)but-2-enoate], the IC50 fell in the range of 100 to 1000 nM. For `C#CCNC(=O)CNC(=O)CN(C1CCN(C(C)c2ccccc2-c2ccccc2)CC1)S(C)(=O)=O` (stereo not drawn) [Compound 113, 2-(N-(1-(1-([1,1′-biphenyl]-2-yl)ethyl)piperidin-4-yl)methylsulfonamido)-N-(2-oxo-2-(prop-2-yn-1-ylamino)ethyl)acetamide], the IC50 is 100 to 1000 nM.

Turning to `COC(CNC(=O)CNC(=O)CN(C1CCN(C(C)c2cccc3ccccc23)CC1)S(C)(=O)=O)OC` (stereo not drawn) [Compound 154, N-(2,2-dimethoxyethyl)-2-(2-(N-(1-(1-(naphthalen-1-yl)ethyl)piperidin-4-yl)methylsulfonamido)acetamido)acetamide], the IC50 was in the range of 1000 to 10000 nM. For the compound `C#CCNC(=O)CNC(=O)CN(C1CCN(C(C)c2cccc3ccccc23)CC1)S(C)(=O)=O` (stereo not drawn) [Compound 97, 2-(N-(1-(1-(naphthalen-1-yl)ethyl)piperidin-4-yl)methylsulfonamido)-N-(2-oxo-2-(prop-2-yn-1-ylamino)ethyl)acetamide], the IC50 was less than 100 nM.

Turning to `C#CCNC(=O)CNC(=O)CN(C1CCN([C@H](C)c2cccc3ccccc23)CC1)S(=O)(=O)CCCO` [Compound 135, (R)-2-((3-hydroxy-N-(1-(1-(naphthalen-1-yl)ethyl)piperidin-4-yl)propyl)sulfonamido)-N-(2-oxo-2-(prop-2-yn-1-ylamino)ethyl)acetamide], the IC50 is less than 100 nM. The value for `CC(c1cccc2ccccc12)N1CCC(N(CC(=O)NCC(=O)NC/C=C/C(N)=O)S(C)(=O)=O)CC1` (stereo not drawn) [Compound 159, (E)-4-(2-(2-(N-(1-(1-(naphthalen-1-yl)ethyl)piperidin-4-yl)methylsulfonamido)acetamido)acetamido)but-2-enamide] was 100 to 1000 nM; that for `C#CCNC(=O)CNC(=O)CN(C1CCN([C@@H](C)c2cccc3ccccc23)CC1)S(=O)(=O)N1CCCC1` [Compound 91, (S)-2-(N-(1-(1-(naphthalen-1-yl)ethyl)piperidin-4-yl)pyrrolidine-1-sulfonamido)-N-(2-oxo-2-(prop-2-yn-1-ylamino)ethyl)acetamide] was less than 100 nM.

As to `COC(=O)/C=C/CNC(=O)CNC(=O)CN(C)C1CCN([C@H](C)c2cccc3ccccc23)CC1` [Compound 25, methyl (R,E)-4-(2-(2-(methyl(1-(1-(naphthalen-1-yl)ethyl)piperidin-4-yl)amino)acetamido)acetamido)but-2-enoate], the half-maximal inhibitory concentration (IC50) is less than 100 nM. For the compound `[2H]C([2H])([2H])C(c1cccc2ccccc12)N1CCC(N(CC(=O)NCC(=O)NCC#C)S(C)(=O)=O)CC1` (stereo not drawn) [Compound 151, 2-(N-(1-(1-(naphthalen-1-yl)ethyl-2,2,2-d3)piperidin-4-yl)methylsulfonamido)-N-(2-oxo-2-(prop-2-yn-1-ylamino)ethyl)acetamide], the half-inhibitory concentration (IC50) was less than 100 nM. Next, `COC(=O)/C=C/CNC(=O)CNC(=O)[C@H](CNC(=O)OC(C)(C)C)NC1CCN([C@H](C)c2cccc3ccccc23)CC1` [Compound 27, methyl (S,E)-2,2-dimethyl-7-((1-((R)-1-(naphthalen-1-yl)ethyl)piperidin-4-yl)amino)-4,8,11-trioxo-3-oxa-5,9,12-triazahexadec-14-en-16-oate]: 1000 to 10000 nM; `COC(=O)/C=C/CNC(=O)CNC(=O)CN(C(=O)C1CCC1)C1CCN([C@H](C)c2cccc3ccccc23)CC1` [Compound 7, methyl (R,E)-4-(2-(2-(N-(1-(1-(naphthalen-1-yl)ethyl)piperidin-4-yl)cyclobutanecarboxamido)acetamido)acetamido)but-2-enoate]: 100 to 1000 nM; `C#CCNC(=O)CNC(=O)CN(C1CCN([C@@H](C)c2cccc3ccccc23)CC1)S(=O)(=O)C1CC1` [Compound 90, (S)-2-(N-(1-(1-(naphthalen-1-yl)ethyl)piperidin-4-yl)cyclopropanesulfonamido)-N-(2-oxo-2-(prop-2-yn-1-ylamino)ethyl)acetamide]: less than 100 nM. Next, `C#CCNC(=O)CNC(=O)CN(C1CCN(c2nc3cc(Cl)ccc3s2)CC1)S(C)(=O)=O` [Compound 126, 2-(N-(1-(5-chlorobenzo[d]thiazol-2-yl)piperidin-4-yl)methylsulfonamido)-N-(2-oxo-2-(prop-2-yn-1-ylamino)ethyl)acetamide]: 1000 to 10000 nM. The value for `C#CCNC(=O)CNC(=O)CN(C1CCN(C(c2cccc3ccccc23)C(F)F)CC1)S(C)(=O)=O` (stereo not drawn) [Compound 148, 2-(N-(1-(2,2-difluoro-1-(naphthalen-1-yl)ethyl)piperidin-4-yl)methylsulfonamido)-N-(2-oxo-2-(prop-2-yn-1-ylamino)ethyl)acetamide] was 1000 to 10000 nM.

In the case of `CC(c1cccc2ccccc12)N1CCC(N(CC(=O)NCC(=O)NCC(=O)CF)S(C)(=O)=O)CC1` (stereo not drawn) [Compound 132, N-(3-fluoro-2-oxopropyl)-2-(2-(N-(1-(1-(naphthalen-1-yl)ethyl)piperidin-4-yl)methylsulfonamido)acetamido)acetamide], the half-inhibitory concentration (IC50) is less than 100 nM. In the case of `C#CCNC(=O)CNC(=O)CNC1CCN([C@H](C)c2cccc3ccccc23)CC1` [Compound 12, (R)-2-((1-(1-(naphthalen-1-yl)ethyl)piperidin-4-yl)amino)-N-(2-oxo-2-(prop-2-yn-1-ylamino)ethyl)acetamide], the IC50 lay within 100 to 1000 nM. Take `C#CCCNC(=O)CNC(=O)CN(C1CCN(C(C)c2cccc3ccccc23)CC1)S(C)(=O)=O` (stereo not drawn) [Compound 157, N-(but-3-yn-1-yl)-2-(2-(N-(1-(1-(naphthalen-1-yl)ethyl)piperidin-4-yl)methylsulfonamido)acetamido)acetamide]: the IC50 was 100 to 1000 nM. As for `CC(c1cccc2ccccc12)N1CCC(N(CC(=O)NCC(=O)NC/C=C/C(N)=O)C(=O)C2CCC2)CC1` (stereo not drawn) [Compound 8, (E)-N-(2-((2-((4-amino-4-oxobut-2-en-1-yl)amino)-2-oxoethyl)amino)-2-oxoethyl)-N-(1-(1-(naphthalen-1-yl)ethyl)piperidin-4-yl)cyclobutanecarboxamide], the IC50 lay within 100 to 1000 nM.

With `C[C@H](c1cccc2ccccc12)N1CCC(N(CC(=O)NCC(=O)NC/C=C/S(C)(=O)=O)S(C)(=O)=O)CC1` [Compound 59, (R,E)-N-(3-(methylsulfonyl)allyl)-2-(2-(N-(1-(1-(naphthalen-1-yl)ethyl)piperidin-4-yl)methylsulfonamido)acetamido)acetamide], the 50% inhibitory concentration (IC50) lay within 100 to 1000 nM.
